According to US20150212087A1, “Detection of the ERalpha/Src/PI3K Complex as Predictive Marker in Breast Cancer” (Centre Leon Berard, priority 2012, published 2015):

What was measured:
ERα/PI3K interaction = assay: In situ Proximity Ligation Assay (PLA) detection of ERα/PI3K interaction in MCF-7 cells; type: cell-based, human; conditions: upon treatment
Text: (§1) Castoria et al. reported that estrogen rapidly triggers the interaction of ERα with Src and PI3K in MCF-7 cells, forming a complex involved in estrogen nongenomic-induced cell proliferation. […] Therefore the physiological relevance of this signaling pathway remains questionable. To date, immuno fluorescence analysis of the complex has been impeded by the fact that only a small population of ERα interacts with Src and PI3K. To circumvent this problem, we used a newly developed technique, the Proximity Ligation Assay. […] We investigated the ERα/PI3K interaction in the human breast tumor cell line MCF-7, using a rabbit anti-ERα together with a mouse anti-p85 antibody. The ERα/Src interaction was detected using the same anti-ERα together with a mouse anti-Src antibody. […] No dots were detected using only one antibody as confirmed by counting dots per 100 cells (FIG. 1, around 50 dots/cell versus less than 5). Importantly, the number of red dots increased after 5 min of estrogenic treatment then decreased after 15 min. This confirmed that upon estrogenic treatment, the formation of this complex is rapid and transitory (FIG. 2:)). […] They were detected exclusively in the […] of MCF-7 cells, as expected. […]

ERα/Src interaction = assay: In situ Proximity Ligation Assay (PLA) detection of ERα/Src interaction in MCF-7 cells; type: cell-based, human; conditions: upon treatment
Text: as §1

SMILES | ERα/PI3K interaction (red dots) by PLA (ERα/PI3K interaction) | ERα/Src interaction (red dots) by PLA (ERα/Src interaction)
Cc1ccc(-c2nn(C(C)(C)C)c3ncnc(N)c23)cc1 [PP1] | significant decrease of red dots | significant decrease of red dots
CC/C(=C(\c1ccccc1)c1ccc(OCCN(C)C)cc1)c1ccccc1 [tamoxifen] | decrease | decrease
